BindingDB's records for patent US9353116 (University of California, 2016)

Tests used:
[1] = molecular target: T1, Proto-oncogene tyrosine-protein kinase Src [251-533,T338C] (Gallus gallus, UniProt P00523, T338C); experiment: In vitro Kinase Assay; conditions: pH 8
T1 construct: 251-533
Procedure: (§1) In vitro kinase assays for c-Src variants were performed in 50 mM Tris (pH 8.0), 10 mM MgCl2 and 1 mg/mL BSA. When obtaining kinetic parameters (kcat, Km) kinase and peptide substrate (IYGEFKKK) (SEQ ID NO:51) concentrations were 2 nM and 500 μM, respectively, while ATP concentrations ranged from 2000-0.655 μM. Addition of nonradioactive ATP supplemented with 32P ATP (3,000 Ci/mmol, NEN) was used to initiate kinase reactions. Time points were selected such that product formation never exceeded 10%. Reactions were quenched by spotting 3 μL quantities onto phosphocellulose sheets (P81, Whatman). Afterwards, the sheets were washed 3×5 minutes in 0.5% phosphoric acid and dried. Radioactivity was measured by phosphorimaging and recorded on a Typhoon fluorescence imager (Molecular Dynamics).

[2] = molecular target: T2, Proto-oncogene tyrosine-protein kinase Src [251-533] (Gallus gallus, UniProt P00523); experiment: In vitro Kinase Assay; conditions: pH 8
T2 construct: 251-533
Procedure: as §1

SMILES	IC50 [1]	IC50 [2]
CC(=O)c1cccc(Cc2nn(C(C)C)c3ncnc(N)c23)c1 [US9353116, 14]	4520 nM	> 5000 nM
C=CS(=O)(=O)Nc1ccc(Nc2ncnc3cc(OC)c(OC)cc23)cc1 [US9353116, 20]	560 nM	2170 nM
